Reference: patent publication US20070110758A1, “Method for inhibiting bacterial colonisation” (ADELAIDE RESERCH & INNOVATION PTY LTD, priority 2003, published 2007)

System: H. pylori
Assay: Level of H. pylori colonisation in gastric body, transitional zone and antrum of inoculated mice, counted on Giemsa stained sections
Assay type: in vivo, Helicobacter pylori
Conditions: Example 6; N-acetyl cysteine alone; FIGS. 3, 4
Method: Female C57BL/6 mice, approximately six week old, were orally inoculated with Sydney strain 1 (SS1) of H. pylori (1.0×10^8 bacteria delivered in 0.1 ml of 0.9% (w/v) sodium chloride) according to Lee et al., (1997) Gastroenterology 112:1386-1397 (the entire disclosure of which is incorporated herein by reference) and treated twice daily by oro-gastric gavage for 21 days, starting 4 weeks after inoculation (Scheme 1 below). Animals were housed in the Animal House at the Women's and Children's Hospital. All animals were fed mouse chow and water ad libitum. [drawing 1] […]
The level of colonisation in the gastric body, transitional zone and antrum of mice inoculated with H. pylori was counted in 9-12 consecutive fields on Giemsa stained sections.
To assess the effect of the mucolytic agent N-acetyl cysteine […] on colonisation, the level of colonisation in the gastric body, transitional zone and antrum in mice inoculated with H. pylori was counted in 9-12 consecutive fields on Giemsa stained sections.
The level of colonisation in the gastric body, transitional zone and antrum in mice inoculated with H. pylori was counted in 9-12 consecutive fields on Giemsa stained sections.
Colonisation (Giemsa staining): The level of colonisation in the gastric body, transitional zone and antrum was counted in 9-12 consecutive fields on stained sections. […]

In the case of CC(=O)N[C@@H](CS)C(=O)O [NAC, N-acetyl cysteine], the level of colonisation is reported as “no effect”.
